Experimental data: the supplement of paper PMC13207355
Counter-ions that a name gives are not always drawn.

Columns and labels:
Settings in all cases: exposure time: 72 h
E13 [1] = patient-derived glioblastoma stem cells of classical subtype; assay: surviving fraction (nuclei count normalised to DMSO); higher = more cells surviving (less toxic)
E21 [2] = patient-derived glioblastoma stem cells of mesenchymal subtype; assay: as above
E28 [3] = patient-derived glioblastoma stem cells of classical subtype; assay: as above
E31 [4] = patient-derived glioblastoma stem cells of proneural subtype; assay: as above
E34 [5] = patient-derived glioblastoma stem cells of proneural subtype; assay: as above
E57 [6] = patient-derived glioblastoma stem cells of mesenchymal subtype; assay: as above
FT3469 [7] = normal neural stem cell line; assay: as above
E13 [8] = assay: phenotypic distance (Euclidean, principal components) from DMSO controls (arbitrary units); higher = stronger morphological change
E21 [9] = assay: as above
E28 [10] = assay: as above
E31 [11] = assay: as above
E34 [12] = assay: as above
E57 [13] = assay: as above
FT3469 [14] = assay: as above
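Wherever phenotypic distance (Euclidean, principal components) from DMSO controls is given: cell Painting imaging in 384-well plates, CellProfiler features reduced to at least 20 principal components, Euclidean distance versus same-plate DMSO vehicle wells (0.1% v/v), median over six images per well.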
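Wherever surviving fraction (nuclei count normalised to DMSO) is given: nuclei counted by high-content imaging of Hoechst-stained cells in laminin-coated 384-well plates, relative to 0.1% DMSO vehicle wells, with staurosporine as cell-death control.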

CNCCc1ccccn1 [Betahistine mesylate]
Settings	phenotypic distance	surviving fraction
E13 [1], 4.1 nM	–	0.978
E13 [1], 12.3 nM	–	0.933
E13 [1], 37 nM	–	1.01
E13 [1], 111.1 nM	–	1.13
E13 [1], 333.3 nM	–	0.991
E13 [1], 1000 nM	–	1.05
E13 [1], 3000 nM	–	1.08
E13 [8], 4.1 nM	0.901	–
E13 [8], 12.3 nM	0.868	–
E13 [8], 37 nM	1.14	–
E13 [8], 111.1 nM	0.834	–
E13 [8], 333.3 nM	0.663	–
E13 [8], 1000 nM	0.868	–
E13 [8], 3000 nM	0.634	–
E21 [2], 4.1 nM	–	1.01
E21 [2], 12.3 nM	–	1.06
E21 [2], 37 nM	–	0.973
E21 [2], 111.1 nM	–	0.957
E21 [2], 333.3 nM	–	1.08
E21 [2], 1000 nM	–	1.01
E21 [2], 3000 nM	–	1.17
E21 [9], 4.1 nM	1.28	–
E21 [9], 12.3 nM	1.7	–
E21 [9], 37 nM	0.97	–
E21 [9], 111.1 nM	1.14	–
E21 [9], 333.3 nM	1.32	–
E21 [9], 1000 nM	1.57	–
E21 [9], 3000 nM	1.61	–
E28 [3], 4.1 nM	–	0.99
E28 [3], 12.3 nM	–	1.1
E28 [3], 37 nM	–	1.08
E28 [3], 111.1 nM	–	0.858
E28 [3], 333.3 nM	–	1.04
E28 [3], 1000 nM	–	1.1
E28 [3], 3000 nM	–	1.2
E28 [10], 4.1 nM	0.708	–
E28 [10], 12.3 nM	1.01	–
E28 [10], 37 nM	0.524	–
E28 [10], 111.1 nM	0.891	–
E28 [10], 333.3 nM	0.512	–
E28 [10], 1000 nM	0.607	–
E28 [10], 3000 nM	0.451	–
E31 [4], 4.1 nM	–	0.967
E31 [4], 12.3 nM	–	1.11
E31 [4], 37 nM	–	0.864
E31 [4], 111.1 nM	–	1.01
E31 [4], 333.3 nM	–	0.976
E31 [4], 1000 nM	–	1.09
E31 [4], 3000 nM	–	1.1
E31 [11], 4.1 nM	0.624	–
E31 [11], 12.3 nM	0.892	–
E31 [11], 37 nM	0.655	–
E31 [11], 111.1 nM	0.749	–
E31 [11], 333.3 nM	0.468	–
E31 [11], 1000 nM	0.554	–
E31 [11], 3000 nM	1.08	–
E34 [5], 4.1 nM	–	0.797
E34 [5], 12.3 nM	–	0.969
E34 [5], 37 nM	–	0.928
E34 [5], 111.1 nM	–	1.16
E34 [5], 333.3 nM	–	1.11
E34 [5], 1000 nM	–	1.1
E34 [5], 3000 nM	–	0.927
E34 [12], 4.1 nM	0.696	–
E34 [12], 12.3 nM	0.75	–
E34 [12], 37 nM	0.843	–
E34 [12], 111.1 nM	1.03	–
E34 [12], 333.3 nM	0.558	–
E34 [12], 1000 nM	0.851	–
E34 [12], 3000 nM	1.25	–
E57 [6], 4.1 nM	–	0.99
E57 [6], 12.3 nM	–	0.95
E57 [6], 37 nM	–	0.987
E57 [6], 111.1 nM	–	1.04
E57 [6], 333.3 nM	–	1.01
E57 [6], 1000 nM	–	0.983
E57 [6], 3000 nM	–	0.999
E57 [13], 4.1 nM	4.51	–
E57 [13], 12.3 nM	1.49	–
E57 [13], 37 nM	1.15	–
E57 [13], 111.1 nM	1.23	–
E57 [13], 333.3 nM	0.721	–
E57 [13], 1000 nM	0.773	–
E57 [13], 3000 nM	0.773	–
FT3469 [7], 4.1 nM	–	0.941
FT3469 [7], 12.3 nM	–	1.08
FT3469 [7], 37 nM	–	1.16
FT3469 [7], 111.1 nM	–	0.935
FT3469 [7], 333.3 nM	–	1.23
FT3469 [7], 1000 nM	–	1.18
FT3469 [7], 3000 nM	–	1.19
FT3469 [14], 4.1 nM	0.827	–
FT3469 [14], 12.3 nM	0.751	–
FT3469 [14], 37 nM	0.948	–
FT3469 [14], 111.1 nM	0.634	–
FT3469 [14], 333.3 nM	1.15	–
FT3469 [14], 1000 nM	0.929	–
FT3469 [14], 3000 nM	0.86	–

CC(C)C[C@H](NC(=O)CNC(=O)c1cc(Cl)ccc1Cl)B(O)O [Ixazomib]
Settings	phenotypic distance	surviving fraction
E13 [1], 4.1 nM	–	0.298
E13 [1], 12.3 nM	–	0.0451
E13 [1], 37 nM	–	0.0121
E13 [1], 111.1 nM	–	0.013
E13 [1], 333.3 nM	–	0.0174
E13 [1], 1000 nM	–	0.0252
E13 [1], 3000 nM	–	0.00174
E13 [8], 4.1 nM	4.64	–
E13 [8], 12.3 nM	9.62	–
E13 [8], 37 nM	17.4	–
E13 [8], 111.1 nM	10.6	–
E13 [8], 333.3 nM	11.8	–
E13 [8], 1000 nM	8.11	–
E13 [8], 3000 nM	11.2	–
E21 [2], 4.1 nM	–	0.275
E21 [2], 12.3 nM	–	0.0747
E21 [2], 37 nM	–	0.0159
E21 [2], 111.1 nM	–	0.0149
E21 [2], 333.3 nM	–	0.0187
E21 [2], 1000 nM	–	0.0308
E21 [2], 3000 nM	–	0.00187
E21 [9], 4.1 nM	6.82	–
E21 [9], 12.3 nM	7.74	–
E21 [9], 37 nM	11.3	–
E21 [9], 111.1 nM	9.17	–
E21 [9], 333.3 nM	11.6	–
E21 [9], 1000 nM	10.7	–
E21 [9], 3000 nM	14.7	–
E28 [3], 4.1 nM	–	0.582
E28 [3], 12.3 nM	–	0.296
E28 [3], 37 nM	–	0.14
E28 [3], 111.1 nM	–	0.149
E28 [3], 333.3 nM	–	0.0863
E28 [3], 1000 nM	–	0.102
E28 [3], 3000 nM	–	0.0701
E28 [10], 4.1 nM	2.24	–
E28 [10], 12.3 nM	3.91	–
E28 [10], 37 nM	4.89	–
E28 [10], 111.1 nM	4.69	–
E28 [10], 333.3 nM	6.98	–
E28 [10], 1000 nM	6.52	–
E28 [10], 3000 nM	5.85	–
E31 [4], 4.1 nM	–	0.365
E31 [4], 12.3 nM	–	0.223
E31 [4], 37 nM	–	0.0335
E31 [4], 111.1 nM	–	0.0134
E31 [4], 333.3 nM	–	0.0218
E31 [4], 1000 nM	–	0.0402
E31 [4], 3000 nM	–	0.00669
E31 [11], 4.1 nM	3.6	–
E31 [11], 12.3 nM	5.68	–
E31 [11], 37 nM	7.85	–
E31 [11], 111.1 nM	7.57	–
E31 [11], 333.3 nM	8.35	–
E31 [11], 1000 nM	9.03	–
E31 [11], 3000 nM	17.2	–
E34 [5], 4.1 nM	–	0.609
E34 [5], 12.3 nM	–	0.423
E34 [5], 37 nM	–	0.163
E34 [5], 111.1 nM	–	0.126
E34 [5], 333.3 nM	–	0.0695
E34 [5], 1000 nM	–	0.0659
E34 [5], 3000 nM	–	0.0494
E34 [12], 4.1 nM	2.17	–
E34 [12], 12.3 nM	4.29	–
E34 [12], 37 nM	6.54	–
E34 [12], 111.1 nM	7.64	–
E34 [12], 333.3 nM	9.65	–
E34 [12], 1000 nM	10.2	–
E34 [12], 3000 nM	10.4	–
E57 [6], 4.1 nM	–	0.118
E57 [6], 12.3 nM	–	0.0366
E57 [6], 37 nM	–	0.00889
E57 [6], 111.1 nM	–	0.00993
E57 [6], 333.3 nM	–	0.00889
E57 [6], 1000 nM	–	0.0105
E57 [6], 3000 nM	–	0.00366
E57 [13], 4.1 nM	8.41	–
E57 [13], 12.3 nM	11.9	–
E57 [13], 37 nM	11	–
E57 [13], 111.1 nM	10.2	–
E57 [13], 333.3 nM	10.1	–
E57 [13], 1000 nM	9.67	–
E57 [13], 3000 nM	7.76	–
FT3469 [7], 4.1 nM	–	0.583
FT3469 [7], 12.3 nM	–	0.704
FT3469 [7], 37 nM	–	0.371
FT3469 [7], 111.1 nM	–	0.386
FT3469 [7], 333.3 nM	–	0.297
FT3469 [7], 1000 nM	–	0.239
FT3469 [7], 3000 nM	–	0.103
FT3469 [14], 4.1 nM	2.53	–
FT3469 [14], 12.3 nM	2.8	–
FT3469 [14], 37 nM	4.87	–
FT3469 [14], 111.1 nM	6.47	–
FT3469 [14], 333.3 nM	6.55	–
FT3469 [14], 1000 nM	7.04	–
FT3469 [14], 3000 nM	7.74	–
